In the experiment the test system is SK-N-MM (SKNMM-MYCN, doxycycline-inducible MYCN). The experiment in a line: area under dose-response curve (CellTiter-Glo viability normalised to plate controls) (AUC (arbitrary units)); higher = more loss of viability; extreme values may be limits of the assay. Put shortly: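 Compounds were pin-transferred as 10-point 1:3 dilution series (890-fold stock dilution) onto SK-N-MM cells with doxycycline-inducible MYCN, plated at 1250 cells/100 μL in 96-well plates and switched about 24 h after plating to medium with or without doxycycline two days before dosing. Dosing was repeated on day 4, and CellTiter-Glo luminescence was read 3 or 8 days after drugging. Area under the dose-response curve came from log2 signals normalised to the positive and negative controls on each plate.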
(ATP-based viability assays read luminescence as a measure of living cells.)

The mark [1] stands for this setting: MYCN induction (doxycycline): +doxycycline (MYCN induced), time after drugging: 3 days.
[2] abbreviates: MYCN induction (doxycycline): +doxycycline (MYCN induced), time after drugging: 8 days.
[3] abbreviates: MYCN induction (doxycycline): no doxycycline (MYCN not induced), time after drugging: 3 days.
[4] abbreviates: MYCN induction (doxycycline): no doxycycline (MYCN not induced), time after drugging: 8 days.

Data on 31 molecules can be found in the supplement of paper PMC7021759.

± gives the standard deviation of the averaged measurements.

Turning to `CCc1ccc(CCOc2ccc(CC3SC(=O)NC3=O)cc2)nc1` (configuration not stated) [PIOGLITAZONE], the “area under dose-response curve” value runs as follows: under setting [1], 0; under setting [2], 0; under setting [3], 0; under setting [4], 0.
As for `Nc1ccn([C@@H]2O[C@H](CO)[C@@H](O)C2(F)F)c(=O)n1` [GEMCITABINE], the “area under dose-response curve” value reads like this: under setting [1], 72.2; under setting [2], 299; under setting [3], 43.4; under setting [4], 139.
On to `CN(C)CCCNc1c2ccccc2nc2c1[nH]c1ccccc12` [SYUIQ-5], for which the “area under dose-response curve” value under setting [1] came out at 219, the “area under dose-response curve” value under setting [2] was 262, the “area under dose-response curve” value under setting [3] came out at 196 and the “area under dose-response curve” value under setting [4] worked out at 225.
In the case of `O=C1c2c(O)ccc(O)c2C(=O)c2c(NCCNCCO)ccc(NCCNCCO)c21` [MITOXANTHRONE], the “area under dose-response curve” value stood at 166 under setting [1], 325 under setting [2], 119 under setting [3] and 258 under setting [4].
`Cc1c(CN2CCC(Nc3ncnc4sc(CC(F)(F)F)cc34)CC2)ccc2c1cc(C#N)n2Cc1cn[nH]c1` [MI-503]: the “area under dose-response curve” value was found to be 131 under setting [1], 177 under setting [2] and 169 under setting [4].
For the molecule `CNC(=O)c1ccccc1Sc1ccc2c(/C=C/c3ccccn3)n[nH]c2c1` [AXITINIB], the “area under dose-response curve” value under setting [1] came to 52.9, the “area under dose-response curve” value under setting [2] turned out to be 109, the “area under dose-response curve” value under setting [3] is 32.4 and the “area under dose-response curve” value under setting [4] amounted to 69.7.
Regarding `Cn1cnc2c(F)c(Nc3ccc(Br)cc3F)c(C(=O)NOCCO)cc21` [BINIMETINIB], the “area under dose-response curve” value by setting is: under setting [1], 0; under setting [2], 0; under setting [3], 17.9; under setting [4], 56.9.
With `Clc1ccc(NN=C(c2ccccc2)c2ccccn2)nc1` [JIB-04], the “area under dose-response curve” value reads like this: under setting [1], 33.4; under setting [2], 152; under setting [3], 17.8; under setting [4], 37.1.
In the same order, the values of `Cc1c2oc3c(C)ccc(C(=O)N[C@@H]4C(=O)N[C@H](C(C)C)C(=O)N5CCC[C@H]5C(=O)N(C)CC(=O)N(C)[C@@H](C(C)C)C(=O)O[C@@H]4C)c3nc-2c(C(=O)N[C@@H]2C(=O)N[C@H](C(C)C)C(=O)N3CCC[C@H]3C(=O)N(C)CC(=O)N(C)[C@@H](C(C)C)C(=O)O[C@@H]2C)c(N)c1=O` [DACTINOMYCIN] are 140, 282, 91.4 and 210.
In the same order, the values of `O=C(Nc1ccc(Nc2nccc(Nc3cc(C4CCCC4)[nH]n3)n2)cc1)Nc1cccc(C(F)(F)F)c1` [CD532] are 175, 211, 156 and 191.
In the same order, the values of `CNC(=O)c1cc(Oc2ccc(NC(=O)Nc3ccc(Cl)c(C(F)(F)F)c3)c(F)c2)ccn1` [REGORAFENIB] are 30.6, 47.7, 18.8 and 61.4.
As for `CN(C)C1CCN(C(=O)c2ccc(NC(=O)Nc3ccc(-c4nc(N5CCOCC5)nc(N5CCOCC5)n4)cc3)cc2)CC1` [GEDATOLISIB], the “area under dose-response curve” value under setting [1] worked out at 39.4, the “area under dose-response curve” value under setting [2] turned out to be 0, the “area under dose-response curve” value under setting [3] is 27.4 and the “area under dose-response curve” value under setting [4] worked out at 47.7.
Taken in the same sequence, the figures for `CN(C)C/C=C/C(=O)Nc1cc2c(Nc3ccc(F)c(Cl)c3)ncnc2cc1O[C@H]1CCOC1` [AFATINIB] were 137, 145, 140 and 121.
For `O=P1(N(CCCl)CCCl)NCCCO1` (configuration not stated) [CYCLOPHOSPHAMIDE], the “area under dose-response curve” value came to 0 under setting [1], 0 under setting [2] and 0 under setting [3].
As for `CC[C@]1(O)C[C@@H]2CN(CCc3c([nH]c4ccccc34)[C@@](C(=O)OC)(c3cc4c(cc3OC)N(C)[C@H]3[C@@](O)(C(=O)OC)[C@H](OC(C)=O)[C@]5(CC)C=CCN6CC[C@]43[C@@H]65)C2)C1` [VINBLASTINE], the “area under dose-response curve” value under setting [1] is 190, the “area under dose-response curve” value under setting [2] is 284, the “area under dose-response curve” value under setting [3] was 98.1 and the “area under dose-response curve” value under setting [4] was 177.
In the same order, the values of `CC(C)(C)c1nc(-c2cccc(NS(=O)(=O)c3c(F)cccc3F)c2F)c(-c2ccnc(N)n2)s1` [DABRAFENIB] are 9.29, 0, 14.1 and 10.8.
Taken in the same sequence, the figures for `Nc1ccn([C@@H]2O[C@H](CO)[C@@H](O)[C@@H]2O)c(=O)n1` [CYTARABINE] were 40.4, 221, 33.7 and 132.
Regarding `O=C(NC[C@H](O)CN1CCc2ccccc2C1)c1ccnc(NC2CCC2)c1`, the “area under dose-response curve” value under setting [2] amounted to 23.4.
On to `CCCS(=O)(=O)Nc1ccc(F)c(C(=O)c2c[nH]c3ncc(-c4ccc(Cl)cc4)cc23)c1F` [VEMURAFENIB], for which the “area under dose-response curve” value runs as follows: under setting [1], 18.3; under setting [2], 24.6; under setting [3], 15.8; under setting [4], 0.
`COc1ccc2c(c1OC)C(=O)O[C@@H]2[C@H]1c2c(cc3c(c2OC)OCO3)CCN1C` [NOSCAPINE]: the “area under dose-response curve” value is, setting by setting: under setting [1], 0.556; under setting [2], 19.8; under setting [3], 0.
Consider `O=c1[nH]cc(F)c(=O)[nH]1` [5-FLUOROURACIL], for which the “area under dose-response curve” value by setting is: under setting [1], 12.1; under setting [2], 24.8; under setting [3], 6.6; under setting [4], 25.
In the same order, the values of `COc1cc(F)ccc1-c1ncnc(Nc2cccc(CS(C)(=N)=O)c2)n1` (configuration not stated) are 50.3, 123, 34 and 131.
Regarding `CC1(COc2ccc3c(c2)ncn3-c2ccc3cccc(N4CCC(N)CC4)c3n2)COC1` [CRENOLANIB], the “area under dose-response curve” value runs as follows: under setting [1], 0; under setting [2], 136; under setting [3], 0; under setting [4], 146.
Turning to `OC[C@H]1O[C@@H](n2cnc3c2N=CNC[C@H]3O)C[C@@H]1O` [PENTOSTATIN], the “area under dose-response curve” value runs as follows: under setting [1], 0; under setting [2], 0; under setting [3], 0.
As for `Cn1ncnc1[C@H]1c2n[nH]c(=O)c3cc(F)cc(c23)N[C@@H]1c1ccc(F)cc1` [TALAZOPARIB], the “area under dose-response curve” value by setting is: under setting [1], 48.2 ± 12; under setting [2], 183 ± 40; under setting [3], 29.3 ± 20; under setting [4], 78.2 ± 25.
In the case of `Cc1c(N)nc([C@H](CC(N)=O)NC[C@H](N)C(N)=O)nc1C(=O)N[C@H](C(=O)N[C@H](C)[C@@H](O)[C@H](C)C(=O)N[C@H](C(=O)NCCc1nc(-c2nc(C(=O)NCCC[S+](C)C)cs2)cs1)[C@@H](C)O)[C@@H](OC1OC(CO)C(O)C(O)C1OC1OC(CO)C(O)C(OC(N)=O)C1O)c1cnc[nH]1` (some centres not stated) [BLEOMYCIN], the “area under dose-response curve” value runs as follows: under setting [1], 0; under setting [2], 0; under setting [3], 0; under setting [4], 0.
`Cc1nc(-c2cn3c(n2)-c2ccc(-c4cnn(C(C)(C)C(N)=O)c4)cc2OCC3)n(C(C)C)n1` [TASELISIB]: the “area under dose-response curve” value came out at 23.1 under setting [1], 34.9 under setting [2], 34.6 under setting [3] and 39 under setting [4].
`C[C@@H](Oc1cc(-c2cnn(C3CCNCC3)c2)cnc1N)c1c(Cl)ccc(F)c1Cl` [CRIZOTINIB]: the “area under dose-response curve” value by setting is: under setting [1], 145; under setting [2], 196; under setting [3], 147; under setting [4], 178.
In the same order, the values of `COC(=O)[C@]12CCC(C)(C)C[C@H]1[C@H]1C(=O)C=C3[C@@]4(C)C=C(C#N)C(=O)C(C)(C)[C@@H]4CC[C@@]3(C)[C@]1(C)CC2` [BARDOXOLONE METHYL] are 212, 243, 216 and 226.
In the same order, the values of `Clc1ccc(C(c2ccccc2Cl)C(Cl)Cl)cc1` (configuration not stated) [MITOTANE] are 0, 0, 0 and 0.
On to `Cc1cc(Nc2ccc(NC(=O)c3ccc(Nc4ccnc5ccccc45)cc3)cc2)nc(N)n1` [SGI-1027], for which the “area under dose-response curve” value amounted to 80.5 under setting [1], 201 under setting [2], 26.5 under setting [3] and 105 under setting [4].
